Assays:
[1] = biological target: T1, MMP-1 (human interstitial collagenase) (Homo sapiens, UniProt P03956); experiment: Biochemical Assay (Protocol A): inhibition of human collagenase, fluorimetric peptide substrate; conditions: MMP-1, pH 7.4, 37° C.
T1 construct: truncated recombinant enzyme encompassing residues 101-269
T1 sequence (P03956 101-269): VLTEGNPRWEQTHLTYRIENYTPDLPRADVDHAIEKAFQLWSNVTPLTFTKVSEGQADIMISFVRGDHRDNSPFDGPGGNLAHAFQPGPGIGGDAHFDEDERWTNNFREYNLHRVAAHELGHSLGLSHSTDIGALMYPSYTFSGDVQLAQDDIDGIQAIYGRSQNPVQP
Description: (§1) As mentioned above, although low molecular weight MMP inhibitors, including hydroxamates of general formula (A), are already known, there is a strong need for better and diversified molecules for their use in medicine, that is in particular in the control or prevention of degenerative joint diseases such as rheumatoid arthritis and osteoarthritis, or in the management of multiple sclerosis, or in the treatment of invasive tumors. […] For example, the following protocol was used to assess the biochemical activity of compounds of formula (I) against MMP-1, MMP-2, and MMP-3 (respectively, human interstitial collagenase, gelatinase A, and stromelysin-1).
(§2) Human gelatinase-A (MMP-2) was obtained as pro-enzyme (72 kDa) and was activated with 1 mM 4-aminophenylmercuric acetate for 30 min at 37° C. immediately prior to use. Human stromelysin-1 (MMP-3) was obtained as a recombinant pro-enzyme isolated either from E. coli or from baculovirus infected Sf9 insect cells and activated either by heat (1 h, 55° C.) or by 5 mg/l trypsin (30 min, 37° C.) before addition of soybean trypsin inhibitor, finally removed by centrifugation.
(§3) All enzyme assays to determine values of the enzyme-inhibitor dissociation constants were performed using the peptide substrate (7-methoxycoumarin-4-yl)Acetyl-Pro-Leu-Gly-Leu-(3-[2,4-dinitrophenyl]-L-2,3-diaminopropionyl)-Ala-Arg-NH2 (Mca-Pro-Leu-Gly-Leu-Dpa-Ala-Arg--NH2) (C. G. Knight et al., FEBS Lett. 296:263-266, 1992). The enzymes cleave at the Gly-Leu bond removing the internally quenching Dpa group. The release of the highly fluorescent peptide Mca-Pro-Leu was followed fluorimetrically setting the excitation wavelength at 326 nm (bandwidth 5 nm) and the emission at 392 nm (bandwidth 20 nm).
(§4) Continuous fluorescence assay was carried out using a Perkin Elmer LS-50 Fluorescence Spectrophotometer fitted with a thermostatted four position stirring cell changer. Inhibitors were dissolved in the assay buffer ([…] Tris/HCl pH 7.4 containing 0.15 M NaCl, 10 mM CaCl2, 0.01 mM ZnCl2 and 0.05% Brij 35) thermostatted at 37° C. The reaction was started by the addition of substrate ([…]), followed by the addition of the enzyme (e.g. 1.0 nM collagenase, 0.04 nM gelatinase, or 3.0 nM stromelysin) and the increase in fluorescence was monitored over 30 min. The run was repeated at different concentrations of inhibitors in the range 0.1-10000 nM and data at inhibitor concentration in the region if their enzyme-inhibitor dissociation constants were used for calculation.
(§5) Substrate consumption was within 5% of the initial concentration and data outside this range were discarded. The Michaelis constants (Km) for the enzyme-substrate complexes is […] or greater (C. G. Knight et al., reference above), so that the factor (1+S/Km) can be approximated to unity without appreciable error.

[2] = biological target: T2, MMP-2 (human gelatinase A) (Homo sapiens, UniProt P08253); experiment: Biochemical Assay (Protocol A): inhibition of human gelatinase A, fluorimetric peptide substrate; conditions: MMP-2, pH 7.4, 37° C.
T2 sequence (P08253 110-660): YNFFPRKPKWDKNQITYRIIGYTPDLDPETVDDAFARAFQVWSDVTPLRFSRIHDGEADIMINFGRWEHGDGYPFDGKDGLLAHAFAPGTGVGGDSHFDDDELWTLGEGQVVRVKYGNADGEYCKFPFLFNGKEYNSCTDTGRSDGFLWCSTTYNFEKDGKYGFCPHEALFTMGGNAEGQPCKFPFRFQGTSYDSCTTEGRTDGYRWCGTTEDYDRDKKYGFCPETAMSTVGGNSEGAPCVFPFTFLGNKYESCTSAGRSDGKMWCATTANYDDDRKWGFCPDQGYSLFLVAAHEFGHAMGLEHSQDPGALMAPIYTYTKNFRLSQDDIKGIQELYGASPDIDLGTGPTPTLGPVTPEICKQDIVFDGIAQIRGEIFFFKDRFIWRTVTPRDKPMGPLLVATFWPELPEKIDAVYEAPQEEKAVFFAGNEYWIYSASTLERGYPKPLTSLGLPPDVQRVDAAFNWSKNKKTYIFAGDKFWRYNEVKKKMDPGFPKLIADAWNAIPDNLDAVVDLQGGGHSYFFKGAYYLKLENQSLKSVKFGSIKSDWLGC
Description: as §1, §2, §3, §4, §5

[3] = biological target: T3, MMP-3 (human stromelysin-1) (Homo sapiens, UniProt P08254); experiment: Biochemical Assay (Protocol A): inhibition of human stromelysin-1, fluorimetric peptide substrate; conditions: MMP-3, pH 7.4, 37° C.
T3 construct: host or cells: E. coli or baculovirus-infected Sf9 insect cells
Description: as §1, §2, §3, §4, §5

[4] = Pharmacokinetic Assay (Protocol C): plasma levels after i.v. and oral administration to rats; assay type: in vivo, rat (male Sprague-Dawley); conditions: 15 mg/kg
Experimental: Male rats (Sprague-Dawley; body weight about 250-300 g) were acclimatized for about one week before the start of the study. […] Before treatment, rats were overnight fasted. For each compound to be assessed, three rats were treated intravenously (injection in the tail vein as a bolus) with a single dose of 15 mg/kg (as free base or free acid if needed) body weight. Other three rats were treated orally (single bolus dose by gastric gavage) with 15 mg/kg of the same compound. In same cases, according to the detection limit of each particular compound, and its availability in stock, these standard doses were modified as needed.
Blood samples were collected into syringes especially prepared for use with the cannulated animals via the SCV cannula. Under standard conditions, blood samples (0.2 mL) were transferred into heparinized tubes at the following times: 0 (pre-dose), 2, 4, 8, 16, 30, 45, 60, 90 min, 2, 4, 6, 8 and 24 h after iv administration; 0 (pre-dose), 5, 10, 30, 45, 60, 90 min, 2, 4, 6, 8, and 24 h after oral administration. Plasma was obtained immediately by centrifugation (about 10,000 rpm for 3 min) and stored at -80° C. till analysis. Plasma samples were assayed for parent drug concentrations using an appropriate analytical method. Under standard conditions, liquid chromatography--tandem mass spectrometry (LC/MS-MS) was used.
Non-compartmental pharmacokinetic calculations were performed with the aid of Pharm-NCA package (SIMED, France). Maximum plasma concentration, Cmax, and the corresponding time, tmax, were read as the coordinates of the highest raw-data point for individual plasma profiles. Terminal phase was evaluated by graphic judgement by eye; terminal rate constant, was calculated as the slope of the terminal linear portion of natural log-transformed plasma concentrations vs. time curve, obtained using linear regression. Terminal half-life, t1/2,z, was calculated as ln(2)/lz. The area under the plasma concentration-time curve was estimated by the linear trapezoidal rule up to the last measured concentration (AUC(0-tz)) and extrapolated to infinity assuming monoexponential decay, using the formula AUC=AUC(0-tz)+C(tz)/lz, where C(tz) is the measured concentration of the last point with detectable concentration. Following iv dosing, systemic clearance was obtained using the formula Cl=Dose/AUC. According to Protocol C, the pharmacokinetic in rats of some representative compounds within the present invention was evaluated. Significant pharmacokinetic data obtained in rats at a 15 mg/kg dose were as follows: […]

[5] = system: Human DU145 Prostatic Carcinoma cells; experiment: Antitumor Efficacy Assay (Protocol D): DU145 tumor growth inhibition in Balb nu/nu mice; assay type: in vivo, human tumor in Balb nu/nu mice; conditions: 100 mg/kg b.i.d., i.p., day +1 to day +20; p<0.01, Dunnett method
Description: The novel compounds of formula (I) can be used in a method of treatment of the human or animal body by therapy. The condition of a human or animal patient may thus be improved. In particular, compounds the present invention can be used to limit the local growth of established tumors, and to limit growth of secondary metastases. The following protocol was used to evaluate the antitumoral efficacy in vivo of the compounds of the present invention:
Human DU145 Prostatic Carcinoma cells (2×10^6) were injected subcutaneously at day 0 in Balb nu/nu mice. Treatment with inhibitor (i.p. injection) started at day +1 and terminated at day +20. Animal were sacrificed at day +21, and the tumors exised and weighted. Percent tumor growth inhibition vs. control mice (% TGI) was calculated as follows:
% TGI=100-(Mean Tumor Weight in treated group)/(Mean Tumor Weight in […]

T3 sequence (P08254 100-477): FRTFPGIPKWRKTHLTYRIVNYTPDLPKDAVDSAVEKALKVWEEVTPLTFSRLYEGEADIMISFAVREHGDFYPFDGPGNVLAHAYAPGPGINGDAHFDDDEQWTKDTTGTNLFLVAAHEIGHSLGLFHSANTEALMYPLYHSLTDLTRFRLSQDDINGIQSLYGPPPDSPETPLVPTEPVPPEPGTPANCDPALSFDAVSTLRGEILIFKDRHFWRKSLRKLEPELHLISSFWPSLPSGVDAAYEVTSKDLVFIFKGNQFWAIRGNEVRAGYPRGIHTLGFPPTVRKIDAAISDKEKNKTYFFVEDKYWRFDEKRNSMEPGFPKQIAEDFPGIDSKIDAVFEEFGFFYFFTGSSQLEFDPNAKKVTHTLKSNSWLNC

SMILES: CNC(=O)[C@@H](NC(=O)[C@H](CC(C)C)[C@](O)(COC(=O)NC1CCCCC1)C(=O)NO)C(C)(C)C [Example 16, [(2R,3S)-3-(N-Cyclohexylaminocarbonyl)oxymethyl-3-hydroxy-4-hydroxyamino-2-isobutylsuccinyl]-L-tert-leucine-N-methylamide]
- Ki [1]: 1.5 nM
- Ki [2]: 3.2 nM
- Ki [3]: 23 nM
- plasma clearance compared with literature hydroxamic acid MMP inhibitors ([4]; to our best knowledge): inferior to that reported for any hydroxamic acid MMP inhibitor disclosed in the literature
- AUC iv ([4]; iv): 1.35 mg·min/mL
- half-life ([4]; rat, plasma, terminal half-life, read-out: t1/2,z (converted)): 2.3 h
- clearance ([4]; rat, plasma, iv): 11 mL/min/kg
- AUC ([4]; rat, plasma, oral): 1330 ng·h/mL
- TGI (percent tumor growth inhibition vs. control) [5]: 83%
